# Measured values published in patent US20200000752A1, “Method for Treating Epilepsy” (Vanderbilt University, priority 2016, published 2020).
# Experiments:
# CYP 2D6 = CYP 2D6 (Homo sapiens, UniProt P10635); test: biochemical
# seizure activity = test: Oral gavage for 2 weeks, seizure threshold and seizure activity; assay type: in vivo, mice; settings: oral gavage 3 mg/kg for 2 weeks
# [1] = PK of celastrol from IV, IP and PO studies in C57BL/6J mice; settings: male, mouse, whole blood
# Scn1a^+/− mouse = test: Chronic intermittent dosing toxicity in an Scn1a+/- mouse; assay type: in vivo
# Text: An eight-month old male Scn1a^+/− mouse with chronic intermittent dosing was investigated for cortex and hippocampus neuronal survival, which was normal (FIG. 8A).
# AppSWE/PsenIdE9 mice = settings: mouse, in vivo; cited from earlier work
# [2] = MDCKII bidirectional assay; assay type: in vitro ADME; settings: dog
# Text: (§1) MDCKII bidirectional assay was run in collaboration with Dr. Shaun Stauffer in Vanderbilt Institute of Chemical Biology (VICB) synthesis core who is a consultant on this project.
# MDCKII cells = test: MDCKII bidirectional assay; assay type: in vitro ADME; settings: MDCK II bidirectional assay
# Text: as §1
# [3] = system: mutant GABAA α1β2γ2(R82Q) receptors; test: Expression of mutant α1β2γ2(R82Q) receptor subunits in HEK 293T cells (SDS-PAGE immunoblot); assay type: cell-based
# Procedure: HEK 293T cells were transfected with α1, […] and the mutant γ2(R82Q) subunits at 1:1:1 cDNA ratio for 48 hrs. […] (FIG. 20A). Total cell lysates were analyzed by SDS-PAGE and the membrane was immunoblotted against al or γ2 subunits. (FIG. 20A). Protein IDVs of al or γ2 subunits were normalized to the cells without treatment (0) (FIG. 20B).
# heat shock protein Hsp70 = test: Hsp70 expression by high throughput flow cytometry in HEK 293T cells; assay type: cell-based; settings: 4 hrs before harvest
# Text: HEK 293T cells were transfected with α1, β2 and wild-type γ2S (wt) or the mutant γ2S(Q390X) (mut) subunits for 48 hrs (FIG. 16). […] The cells were permeabilized and stained with monoclonal hsp70 (1:200) which was then conjugated with Alexa 647.
# Scn1a^+/− mice = test: Early intermittent dosing, survival of Scn1a+/- mice; assay type: in vivo, mouse; settings: 0.3 mg/kg intermittent from postnatal day 7; untreated ~60% mortality by week 7
# Text: (FIG. 5B, C). Gabrg2^+/Q390X mice in C57/BL/6J background had ˜25% of mortality (B) while Scn1a^+/− mice in C57/BL/6J background had ˜60% of mortality by week 7 (C). […] The Gabrg2^+/Q390X mice were in C57/BL/6J background while Scn1a^+/− sires were from mixed S129/C57BL/6J and the dams were congenic C57/BL/6J. For each mouse model, heterozygous pups of both male and female from 6-8 litters were included.
# [4] = system: GABAA receptor α1 subunit; test: GABAAR α1 subunit expression by high-throughput flow cytometry in HEK 293T cells; assay type: cell-based, human
# Procedure: The neuronal viability was determined with membrane integrity by trypan blue exclusion method^12. The mean survival was determined by counting eight randomly selected, non-overlapping fields with each containing approximately 10-20 neurons (viable+nonviable) (n=4 different cultures). GABAAR expression was determined by the high-throughput flow cytometry. HEK 293T cells were transfected with human α1, β2 and γ2 subunit cDNAs at 1:1:1 ratio for 48 hours. The α1 subunit was chosen as readout. The anti-α1 antibody was directly conjugated with Alexa 488 (data are mean±SEM, n=4). The healthy population was gated.
# HEK 293T cells were transfected with wt γ2 or γ2(Q390X) subunits in combination with al and […] subunits at 1:1:1 cDNA ratio for 48 hrs. […] The cells were either unpermeabilized for surface staining (FIG. 11A, 11C) or permeabilized for total staining (FIG. 11B, 11D). al subunits were probed with mouse anti-α1 subunit antibody conjugated with Alexa 647. The relative al subunit fluorescence intensity (FI) was normalized to the wild-type without celastrol treatment.
# [5] = system: mutant γ2(Q390X) subunit protein; test: Western blot of mutant γ2(Q390X) subunit protein in HEK 293T cells; assay type: cell-based; settings: 1 μm for 4 hours
# Procedure: Total lysates from HEK 293T cells expressing wild-type α1β2γ2 (wt) or the mutant α1β2γ2(Q390X) (mut) receptors for 48 hrs from or from 1 year old wt or Gabrg2^+/Q390X (het) mouse brains were analyzed by western blot (FIGS. 10A and 10B).
# AKT, active caspase 3 = test: P-AKT immunoblot and active caspase 3 staining in cells and Gabrg2+/Q390X mice; parameters: species or system mouse
# Procedure: Total lysates from HEK 293T cells expressing the wild-type (wt) or the mutant α1β2γ2(Q390X) (mut) receptors (FIG. 17A) or from Gabrg2^+/Q390X mouse cortex (17B) were analyzed by SDS-PAGE. The membranes were immunoblotted with the phosphorylated AKT (P-AKT). FIG. 17C. Paraffin-embedded brain sections from 1 year old wild-type (wt) and heterozygous Gabrg2^+/Q390X (het) mice were stained with the active form of caspase 3 (green) and NeuN (red). The cell nuclei were stained with TO-PRO-3 (blue).
# Gabrg2^+/Q390X mice = test: Barnes maze, Gabrg2+/Q390X mice; assay type: in vivo, mouse; settings: 0.3 mg/kg IP for 2 weeks, 2-4 months old
# Procedure: Flow chart in FIG. 13A depicts an overview of the Barnes maze. In training trials which are considered as learning test, time spent to locate the target hole was recorded and quantified for each day in each mouse genotype. In probe trials which are considered as memory test, an hour after the last training trial, each mouse was allotted a 300 sec session to find the target hole. […]. The total time spent at each of the 12 holes was assessed.
# [6] = Caco-2 intrinsic permeability; settings: human
# Caco2 cells = test: Caco-2 intrinsic permeability
# CYP 2C8 = CYP 2C8 (Homo sapiens, UniProt P10632); test: biochemical
# [7] = 3 litters with 6-8 grossly normal pups
# CYP 2C8, sequence (P10632 whole entry): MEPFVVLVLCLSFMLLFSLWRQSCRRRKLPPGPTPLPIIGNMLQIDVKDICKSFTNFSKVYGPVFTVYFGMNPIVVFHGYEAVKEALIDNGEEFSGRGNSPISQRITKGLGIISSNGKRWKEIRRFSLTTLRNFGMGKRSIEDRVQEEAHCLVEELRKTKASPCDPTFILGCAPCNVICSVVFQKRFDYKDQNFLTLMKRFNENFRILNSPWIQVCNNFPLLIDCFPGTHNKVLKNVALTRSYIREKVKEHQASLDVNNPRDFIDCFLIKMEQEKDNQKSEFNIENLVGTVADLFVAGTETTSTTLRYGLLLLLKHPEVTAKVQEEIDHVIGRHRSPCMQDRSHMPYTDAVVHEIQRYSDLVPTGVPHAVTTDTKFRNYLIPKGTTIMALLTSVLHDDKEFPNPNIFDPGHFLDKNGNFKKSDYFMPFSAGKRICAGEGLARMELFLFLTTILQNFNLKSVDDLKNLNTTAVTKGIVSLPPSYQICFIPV
# CYP 2D6, sequence (P10635 whole entry): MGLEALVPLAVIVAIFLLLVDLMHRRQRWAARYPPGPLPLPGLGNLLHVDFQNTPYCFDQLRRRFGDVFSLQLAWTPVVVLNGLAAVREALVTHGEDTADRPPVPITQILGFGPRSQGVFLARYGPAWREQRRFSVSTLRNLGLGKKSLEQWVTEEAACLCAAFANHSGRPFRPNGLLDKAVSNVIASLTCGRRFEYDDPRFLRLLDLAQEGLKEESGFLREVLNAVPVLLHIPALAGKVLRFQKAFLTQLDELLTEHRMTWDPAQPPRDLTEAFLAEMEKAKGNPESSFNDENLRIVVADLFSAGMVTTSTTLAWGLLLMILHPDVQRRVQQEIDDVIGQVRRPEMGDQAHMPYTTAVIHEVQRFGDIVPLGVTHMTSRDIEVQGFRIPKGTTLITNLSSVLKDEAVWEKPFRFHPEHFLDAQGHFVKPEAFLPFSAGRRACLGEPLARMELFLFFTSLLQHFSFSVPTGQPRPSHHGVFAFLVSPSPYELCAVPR
structure (smiles),measurement,setting,value
"CC1=C(O)C(=O)C=C2C1=CC=C1[C@@]2(C)CC[C@@]2(C)[C@@H]3C[C@](C)(C(=O)O)CC[C@]3(C)CC[C@]12C [Celastrol, 3-Hydroxy-9β,13α-dimethyl-2-oxo-24,25,26-trinoroleana-1(10),3,5,7-tetraen-29-oic acid]",IC50,CYP 2D6,> 10000 nM
same,seizure threshold and seizure activity,seizure activity,increasing seizure threshold and reducing seizure activity
same,bioavailability,[1],~20%
same,bioavailability,[1]; 10 mg/kg,20%
same,fertility,Scn1a^+/− mouse; [7],normal fertility
same,teratogenicity,Scn1a^+/− mouse; [7],no teratogenicity
same,"HE staining of liver, kidney and heart",Scn1a^+/− mouse; chronic intermittent dosing,"Normal cell numbers, morphology and viability"
same,"HE staining of lung, spleen, intestine, testis, leg muscle and skin",Scn1a^+/− mouse; chronic intermittent dosing,no abnormalities were identified
same,blood counts,Scn1a^+/− mouse; chronic intermittent dosing,normal blood counts
same,"organ function, total protein and metabolics",Scn1a^+/− mouse; chronic intermittent dosing,"normal function of liver, heart and kidney and normal total protein and metabolics"
same,cortex and hippocampus neuronal survival,"Scn1a^+/− mouse; eight-month old male, chronic intermittent dosing",normal
same,memory,AppSWE/PsenIdE9 mice,improve memory
same,Papp,"[2]; MDCK, MDCKII cells, read-out: apparent membrane permeability Papp",≥ 1 ×10⁻⁶ cm/s
same,Papp A→B,[2]; MDCK II bidirectional assay,56.5 ×10⁻⁶ cm/s
same,efflux,MDCKII cells,no significant efflux
same,expression of mutant α1β2γ2(R82Q) receptors,[3]; applied 4 hrs before harvest,increased
same,"enhancing GABAA receptor subunit expression, comparison","[3]; different concentrations, 4 hrs",more effective in enhancing GABAA receptor subunit expression than Stiripentol
same,expression of Hsp70,heat shock protein Hsp70,Increased
same,survival,Scn1a^+/− mice,completely rescued the survival
same,cell death,[4]; HEK 293T dishes with 2 and 4 μm,Cell death was observed
same,surface α1 subunits,"[4]; HEK 293T, α1β2γ2, 0-8 μm for 4 hours",concentration dependently increased
same,mutant γ2(Q390X) subunit protein,[5],reduced
same,active caspase 3,"AKT, active caspase 3; 0.3 mg/kg IP 2 weeks",Reducing Active Caspase 3
same,AKT (P-AKT),"AKT, active caspase 3; 0.3 mg/kg IP 2 weeks in mice, HEK 293T cells",Activating AKT
same,time spent at target hole in probe trial,Gabrg2^+/Q390X mice,spent more time in the target hole area
same,"Papp at 2 h, 2 microM",[6],≥ 1 ×10⁻⁶ cm/s
same,"membrane permeability in Caco2 assay, in words",Caco2 cells,high membrane permeability
same,IC50,CYP 2C8,2190 nM
